Data from patent US8124356B2, “Methods of purifying zsig33” (ZymoGenetics, Inc., priority 1999, dated 2012).

Experiments:
[1] = test system: duodenum, jejunum, kidney and other harvested tissues; experiment: Binding studies of FITC-labeled zsig33 peptides in situ (tail vein injection, fluorescent microscopy of tissue sections); assay type: in vivo, Balb C male mice; conditions: FITC-labeled peptide, 0.5 ml (0.5 mg) tail vein, circulated 15 minutes, microscopy at 495 nm
Method: Ten week old Balb C male mice were anesthetized via intramuscular injection and tested for binding of zsig33 peptides in vivo.
Two peptides were tested: the first peptide, zsig33-1, (See Example 4) consisted of residues 24 to 37 of SEQ ID NO:2, and the second peptide, zsig33-2, consisted of residues 24 to 41 of SEQ ID NO:2. A single glycine was used as a negative control. Additionally, a “scrambled” negative control consisting of residues the first peptide which had been rearranged (SEQ ID NO:15) was also tested. The peptides and controls were coupled to fluorescein isothiocyantate (FITC, Molecular Probes, Eugene, Oreg.) in the following manner: The peptides, glycine control and FITC were dissolved in 0.1 M sodium bicarbonate at pH 9.0 to a concentration of 2.0 mg/ml for the peptides and glycine control and 5 mg/ml for FITC, avoiding exposure of the FITC to strong light. […] The buffer was changed daily and unbound FITC in the post-dialyzed buffer was measured by HPLC. […] Peptide- or glycine-bound FITC was determined by measuring the absorbance of the dialyzed FITC-bound material at 498 nm and dividing by the extinction coefficient of fluorescein, […]. The molar ratio of fluorescein to peptide (mole FITC/mole peptide) was then determined. […]

[2] = test system: antral portion of the stomach; experiment: Effects on gastrointestinal contractility (transducing crystals on antral portion of the stomach); assay type: in vivo, Sprague-Dawley rats
Method: Two male Sprague-Dawley rats, approximately 12 weeks old (Harlan, Indianapolis, Ind.) were anesthetized with urethane and their stomachs were exposed through a small abdominal incision. Two 2.4 mm transducing crystals (Sonometrics, Ontario, Canada) were placed on the antral portion of the stomach such that circular contractions could be monitored as a change in the distance between the two crystals. The crystals were attached with VETBOND TISSUE ADHESIVE (3M, St. Paul, Minn.).
10 ml of norepinephrine (NE) at 1 mM caused a reduction in the distance between the two crystals. The amplitude of the NE-induced decrease was approximately 50% of the acetylcholine-induced increase in distance. Both responses were transient.
A negative control of 10 ml of phosphate buffer solution (PBS) applied topically between the crystals had no effect.
A 14 amino acid zsig33 peptide (zsig33-1, as shown in Example 4) was dissolved in PBS and 10 ml was applied topically for a final concentration of 1 mg, 10 mg or 100 mg.

[3] = Effects on glucose absorption after oral glucose challenge; assay type: in vivo, ob/ob mice; conditions: 100 mg orally, 30 minutes prior to an oral glucose challenge (0.5 ml of 25% glucose), serum glucose
Method: Eight female ob/ob mice, approximately 6 weeks old (Jackson Labs, Bar Harbor, Me.) were adapted to a 4 hour daily feeding schedule for two weeks. After two weeks on the feeding schedule, the mice were given 100 mg of a zsig33 peptide (zsig33-1, as shown in Example 4) in 100 ml sterile 0.1% BSA by oral gavage, immediately after their eating period (post-prandially). Thirty minutes later, the mice were challenged orally with a 0.5 ml volume of 25% glucose. Retroorbital bleeds were done to determine serum glucose levels. Blood was drawn prior to zsig33 dosing, prior to oral glucose challenge, and at 1, 2, 4, and 20 hours following the glucose challenge.

[4] = test system: stomachs of fasted male Sprague-Dawley rats; experiment: Effects on gastric emptying (transit of phenol red through the stomach); assay type: in vivo; conditions: 1 μg applied topically to the stomach five minutes after gavage, measured 30 minutes after the gavage
Method: The effect of topically applied zsig33 peptide (amino acid 24 to 37 of SEQ ID NO: 2) on the transit of phenol red through the stomachs of fasted male Sprague-Dawley rats (Harlan, Indianapolis, Ind.) was evaluated. The rats (6 animals, 8 weeks old) were fasted 24 hrs prior to being anesthetized with urethane (0.5 ml/100 grams of 25% solution). After anesthetizing, the animals were orally gavaged with 1 ml of Phenol Red solution (50 mg/ml in 2% methylcellulose solution).
The stomach of each animal was exposed through a small abdominal incision and either 1 μg zsig33 peptide or a 14 amino acid control of a scrambled sequence peptide was applied topically to the stomach five minutes following the gavage. The amount of Phenol Red remaining in the stomach was determined by measuring optical density of the extracted stomach contents 30 minutes after the gavage.

[5] = Effects on body weight, food intake and glucose clearance; assay type: in vivo, ob/ob mice; conditions: 1 mg/mouse orally twice daily for fourteen days, versus scrambled peptide
Method: Sixteen female ob/ob mice, 8 weeks old, (Jackson Labs, Bar Harbor, Me.) were adapted to a special 4 hour daily feeding schedule for two weeks. The were fed ad libitum from 7:30-11:30 am daily. After two weeks on the feeding schedule, the mice were divided into two groups of 8. One group was given 1.0 mg/mouse of zsig33-1 (14 amino acid peptide) and the other vehicle (a 14 amino acid scrambled sequence peptide) in […] sterile 0.1% BSQA by oral gavage just prior to receiving food, and at the end of the 4 hour feeding period. The mice were […] twice daily for fourteen days, during which time food intake and body weight was measured daily. On day 14, immediately after the second oral gavage of the zsig33-1 peptide, the mice were challenged orally with an 0.5 ml volume of 25% glucose. Retro-orbital bleeds were done to determine serum glucose levels immediately prior to administration of the zsig33-1 peptide or vehicle (t=30 min.), and also at 0, 1, 2, and 4 hours following the glucose challenge.

| fluorescence in duodenum, jejunum and in the collecting ducts and convoluted tubules of the kidney compared to the glycine and "scrambled" controls [1] | Molecule | change in crystal distance (contractions) ([2]; 10 ml in PBS applied topically, 1 mg) | response in rate and amplitude of the contractions ([2]; 10 ml in PBS applied topically, 10 mg and 100 mg, compared with 1 mg) | post-prandial glucose absorption [3] | reduction of the amount of Phenol Red remaining in the stomach compared to a scrambled peptide [4] | daily body weight [5] | daily food intake [5] | amplitude of the NE-induced decrease relative to the acetylcholine-induced increase in distance ([2]; 10 ml of 1 mM applied topically) | change in the distance between the two crystals ([2]; 10 ml of 1 mM applied topically to the stomach, anesthetized rats) |
| --- | --- | --- | --- | --- | --- | --- | --- | --- | --- |
| increased fluorescence | zsig33-2: peptide consisting of residues 24 to 41 of SEQ ID NO:2 (GSSFLSPEHQRVQQRKES; listed as Homo sapiens) | – | – | – | – | – | – | – | – |
| increased fluorescence | zsig33-1: 14 amino acid peptide corresponding to amino acid residue 24 (Gly) to amino acid residue 37 (Gln) of SEQ ID NO: 2 (GSSFLSPEHQRVQQ; listed as Homo sapiens) | sustained, rhythmic increase and decrease in crystal distance | enhanced responses in both rate and amplitude | enhanced post-prandial glucose absorption | approximately 25% | no affect | no affect | – | – |
| – | NC[C@H](O)c1ccc(O)c(O)c1 [norepinephrine, reference compound] | – | – | – | – | – | – | approximately 50% | reduction |
